pEC50: −log10 of the molar value. Numbered stars: 1 amine (or outer) side, 2 acyl side, 3 side chain; on linkers, the order of the positions; unused ones are H or OH. Bridge positions count the residues as written; N and C are the ends. Square brackets hold non-standard residues; d marks the D form. Side chains are listed from the residue outwards. Peptide text beside a SMILES is read from it. I, II: the chains in the order shown. * marks the point of attachment. C18 diacid = O=C(O)CCCCCCCCCCCCCCCCC(=O)*; γGlu = O=C(O)[C@H](CCC(=O)[*:2])N[*:1]; Ac4c = NC1(C(=O)O)CCC1; AEEA = NCCOCCOCC(=O)O; Aib = CC(C)(N)C(=O)O

The target in series [1] is T1, human GLP-1 receptor (Homo sapiens, UniProt P43220).
T1 construct: expressed in transfected cells; host or cells: BHK cells (parent BHKTS13), clone FCW467-12A/KZ10-1, with CRE luciferase
T1 sequence (P43220 24-463): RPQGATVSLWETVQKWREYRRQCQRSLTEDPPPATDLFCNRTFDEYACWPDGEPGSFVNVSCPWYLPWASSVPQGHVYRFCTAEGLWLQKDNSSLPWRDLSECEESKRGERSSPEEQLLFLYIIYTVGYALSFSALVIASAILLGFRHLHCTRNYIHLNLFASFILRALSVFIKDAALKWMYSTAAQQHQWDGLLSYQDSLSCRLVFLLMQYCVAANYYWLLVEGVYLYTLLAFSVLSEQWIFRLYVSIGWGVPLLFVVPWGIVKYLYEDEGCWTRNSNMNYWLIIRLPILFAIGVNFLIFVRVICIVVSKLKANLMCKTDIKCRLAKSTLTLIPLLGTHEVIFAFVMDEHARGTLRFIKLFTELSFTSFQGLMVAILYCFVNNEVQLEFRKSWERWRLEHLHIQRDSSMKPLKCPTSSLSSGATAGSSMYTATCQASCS
The series can be described thus: GLP-1 receptor potency, CRE luciferase reporter gene assay in BHK cells. The conditions noted are these: BHK cells expressing human GLP-1 receptor, read-out: EC50 GLP-1R. It is filed as cell-based. The method, boiled down:
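Potency as cAMP-driven firefly luciferase signal after 3 h, 37° C exposure to 10-fold dilutions (final 1×10EE-13–1×10EE-6 M). Stable hGLP-1R/CRE-luc BHK clone, 5×10EE3 cells/well, medium containing 2% ovalbumin and 0.2% Pluronic F-68; EC50 (pM) from variable-slope non-linear regression.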
For orientation: A reporter such as luciferase makes a cellular process visible.

Series [2] can be described thus: Thioflavin T (ThT) fibrillation assay for physical stability. The conditions noted are these: 250 μM in 10 mM HEPES buffer, pH 7.5, 37° C., shaking 960 rpm. It is filed as physicochemical. The method, boiled down: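 Fibrillation was followed by ThT (1 μM) fluorescence every 20 min, 444/485 nm, for 250 μM peptide in 10 mM HEPES pH 7.5 shaken at 960 rpm, 37° C. Lag time (t0−2τ) and apparent rate constant (1/τ) come from a sigmoidal fit. Recovery is % of initial concentration remaining soluble after centrifugation and filtration (RP-HPLC).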

In general, pEC50 refers to the EC50 on a negative log10 scale, so that one unit is a factor of ten. Consider `CC(C)C[C@H](NC(=O)[C@H](Cc1ccc(O)cc1)NC(=O)[C@H](CCCCN)NC(=O)[C@H](CO)NC(=O)[C@H](CC(C)C)NC(=O)[C@H](CC(=O)O)NC(=O)[C@H](CO)NC(=O)[C@@H](NC(=O)[C@H](Cc1ccccc1)NC(=O)[C@@H](NC(=O)CNC(=O)[C@H](CCC(N)=O)NC(=O)C(C)(C)NC(=O)[C@@H](N)Cc1c[nH]cn1)[C@@H](C)O)[C@@H](C)O)C(=O)N[C@@H](CC(=O)O)C(=O)N[C@@H](C)C(=O)N[C@@H](CCCNC(=N)N)C(=O)N[C@@H](CCCNC(=N)N)C(=O)N[C@@H](C)C(=O)N[C@@H](CCCNC(=N)N)C(=O)N[C@@H](CC(=O)O)C(=O)N[C@@H](Cc1ccccc1)C(=O)N[C@H](C(=O)N[C@@H](CCC(N)=O)C(=O)N[C@@H](Cc1c[nH]c2ccccc12)C(=O)N[C@@H](CC(C)C)C(=O)N[C@@H](CC(C)C)C(=O)N[C@@H](CC(N)=O)C(=O)N[C@@H](CCCCNC(=O)CC[C@H](NC(=O)CC[C@H](NC(=O)COCCOCCNC(=O)COCCOCCNC(=O)CC[C@H](NC(=O)CCCCCCCCCCCCCCCCC(=O)O)C(=O)O)C(=O)O)C(=O)O)C(N)=O)C(C)C` [Example 65] (H-H[Aib]QGTFTSDLSKYLDARRARDFVQWLLNK([γGlu-γGlu-AEEA-AEEA-γGlu-C18 diacid])-NH2; N-terminus assumed), for which the pEC50 in series [1] is 11.22. This compound also yielded a THT assay Lag time (Ex. 76) in series [2] of 45 h.

For the compound `CC(C)C[C@H](NC(=O)[C@H](Cc1ccc(O)cc1)NC(=O)[C@H](CCCCN)NC(=O)[C@H](CO)NC(=O)[C@H](CC(C)C)NC(=O)[C@H](CC(=O)O)NC(=O)[C@H](CO)NC(=O)[C@@H](NC(=O)[C@H](Cc1ccccc1)NC(=O)[C@@H](NC(=O)CNC(=O)[C@H](Cc1c[nH]cn1)NC(=O)C1(NC(=O)[C@@H](N)Cc2c[nH]cn2)CCC1)[C@@H](C)O)[C@@H](C)O)C(=O)N[C@@H](CCC(=O)O)C(=O)N[C@@H](CO)C(=O)N[C@@H](CCCNC(=N)N)C(=O)N[C@@H](CCCNC(=N)N)C(=O)N[C@@H](C)C(=O)N[C@@H](CCC(N)=O)C(=O)N[C@@H](CC(=O)O)C(=O)N[C@@H](Cc1ccccc1)C(=O)N[C@H](C(=O)N[C@@H](CCC(N)=O)C(=O)N[C@@H](Cc1c[nH]c2ccccc12)C(=O)N[C@@H](CC(C)C)C(=O)N[C@@H](CC(C)C)C(=O)N[C@@H](CCCCNC(=O)CNC(=O)[C@H](CO)NC(=O)[C@H](CCC(=O)O)NC(=O)CNC(=O)[C@H](CO)NC(=O)CC[C@H](NC(=O)CC[C@H](NC(=O)CCCCCCCCCCCCCCCCC(=O)O)C(=O)O)C(=O)O)C(=O)N[C@H](C(N)=O)[C@@H](C)O)C(C)C` [Example 35, N^ε28-[2-[[(2S)-2-[[(2S)-4-carboxy-2-[[2-[[(2S)-2-[[(4S)-4-carboxy-4-[[(4S)-4-carboxy-4-(17-carboxyheptadecanoylamino)butanoyl]amino]butanoyl]amino]-3-hydroxypropanoyl]amino]acetyl]amino]butanoyl]amino]-3-hydroxypropanoyl]amino]acetyl]-[Acb2,His3,Leu10,Glu15, Leu27,Lys28]-Glucagon amide] (I: H-H[Ac4c]HGTFTSDLSKYLESRRAQDFVQWLLKT-NH2 / II: {C18 diacid-γGlu-γGlu}-SGESG; amide I:28-II:C; N-terminus assumed), in series [1], the negative logarithm of the EC50 (pEC50) is 11.52. This compound also registered a THT assay Lag time (Ex. 76) in series [2] of 45 h.

Turning to `CC(C)C[C@H](NC(=O)[C@H](Cc1ccc(O)cc1)NC(=O)[C@H](CCCCN)NC(=O)[C@H](CO)NC(=O)[C@H](CC(C)C)NC(=O)[C@H](CC(=O)O)NC(=O)[C@H](CO)NC(=O)[C@@H](NC(=O)[C@H](Cc1ccccc1)NC(=O)[C@@H](NC(=O)CNC(=O)[C@H](CCC(N)=O)NC(=O)C(C)(C)NC(=O)[C@@H](N)Cc1c[nH]cn1)[C@@H](C)O)[C@@H](C)O)C(=O)N[C@@H](CCC(=O)O)C(=O)N[C@@H](CO)C(=O)N[C@@H](CCCCN)C(=O)N[C@@H](CCCNC(=N)N)C(=O)N[C@@H](C)C(=O)N[C@@H](CCCNC(=N)N)C(=O)N[C@@H](CCC(=O)O)C(=O)N[C@@H](Cc1ccccc1)C(=O)N[C@H](C(=O)N[C@@H](CCC(N)=O)C(=O)N[C@@H](Cc1c[nH]c2ccccc12)C(=O)N[C@@H](CC(C)C)C(=O)N[C@@H](CC(C)C)C(=O)N[C@@H](CCCCNC(=O)CC[C@H](NC(=O)CC[C@H](NC(=O)[C@H](CO)NC(=O)[C@H](CCC(=O)O)NC(=O)[C@H](CO)NC(=O)CC[C@H](NC(=O)CC[C@H](NC(=O)CCCCCCCCCCCCCCCCC(=O)O)C(=O)O)C(=O)O)C(=O)O)C(=O)O)C(=O)N[C@H](C(N)=O)[C@@H](C)O)C(C)C` [Example 54, N^ε28-[(4S)-4-carboxy-4-[[(4S)-4-carboxy-4-[[(2S)-2-[[(2S)-4-carboxy-2-[[(2S)-2-[[(4S)-4-carboxy-4-[[(4S)-4-carboxy-4-(17-carboxyheptadecanoylamino)butanoyl]amino]butanoyl]amino]-3-hydroxypropanoyl]amino]butanoyl]amino]-3-hydroxypropanoyl]amino]butanoyl]amino]butanoyl]-[Aib2,Leu10,Glu15,Lys17,Arg20,Glu21,Leu27,Lys28]-Glucagon amide] (H-H[Aib]QGTFTSDLSKYLESKRAREFVQWLLK([γGlu-γGlu-Ser-Glu-Ser-γGlu-γGlu-C18 diacid])T-NH2; N-terminus assumed), the pEC50 in series [1] was 11.57. Moreover, the THT assay Lag time (Ex. 76) in series [2] was found to be 45 h.

On to `CC(C)C[C@H](NC(=O)[C@H](CC(C)C)NC(=O)[C@H](Cc1c[nH]c2ccccc12)NC(=O)[C@H](CCC(N)=O)NC(=O)[C@@H](NC(=O)[C@H](Cc1ccccc1)NC(=O)[C@H](CCC(=O)O)NC(=O)[C@H](CCCNC(=N)N)NC(=O)[C@H](C)NC(=O)[C@H](CCCNC(=N)N)NC(=O)[C@H](CCCNC(=N)N)NC(=O)[C@H](CO)NC(=O)[C@H](CCC(=O)O)NC(=O)[C@H](CC(C)C)NC(=O)[C@H](Cc1ccc(O)cc1)NC(=O)[C@H](CCCCN)NC(=O)[C@H](CO)NC(=O)[C@H](CC(C)C)NC(=O)[C@H](CC(=O)O)NC(=O)[C@H](CO)NC(=O)[C@@H](NC(=O)[C@H](Cc1ccccc1)NC(=O)[C@@H](NC(=O)CNC(=O)[C@H](CCC(N)=O)NC(=O)C(C)(C)NC(=O)[C@@H](N)Cc1c[nH]cn1)[C@@H](C)O)[C@@H](C)O)C(C)C)C(=O)N[C@@H](CC(N)=O)C(=O)N[C@@H](CCCCNC(=O)CC[C@H](NC(=O)COCCOCCNC(=O)COCCOCCNC(=O)CC[C@H](NC(=O)CC[C@H](NC(=O)CCCCCCCCCCCCCCCCC(=O)O)C(=O)O)C(=O)O)C(=O)O)C(N)=O` [Example 21, N^ε29-[(4S)-4-carboxy-4-[[2-[2-[2-[[2-[2-[2-[[(4S)-4-carboxy-4-[[(4S)-4-carboxy-4-(17-carboxyheptadecanoylamino)butanoyl]amino]butanoyl]amino]ethoxy]ethoxy]acetyl]amino]ethoxy]ethoxy]acetyl]amino]butanoyl]-[Aib2,Leu10,Glu15,Arg20,Glu21,Leu27,Lys29]-Glucagon amide] (H-H[Aib]QGTFTSDLSKYLESRRAREFVQWLLNK([γGlu-AEEA-AEEA-γGlu-γGlu-C18 diacid])-NH2; N-terminus assumed), for which the negative-log EC50 (pEC50) in series [1] was 11.57. The THT assay Lag time (Ex. 76) in series [2] is 18 h.

For the compound `CC(C)C[C@H](NC(=O)[C@H](CC(=O)O)NC(=O)[C@H](CC(C)C)NC(=O)[C@H](Cc1ccc(O)cc1)NC(=O)[C@H](CCCCN)NC(=O)[C@H](CO)NC(=O)[C@H](CC(C)C)NC(=O)[C@H](CC(=O)O)NC(=O)[C@H](CO)NC(=O)[C@@H](NC(=O)[C@H](Cc1ccccc1)NC(=O)[C@@H](NC(=O)CNC(=O)[C@H](CCC(N)=O)NC(=O)C1(NC(=O)[C@@H](N)Cc2c[nH]cn2)CCC1)[C@@H](C)O)[C@@H](C)O)C(=O)N[C@@H](CCCCN)C(=O)N[C@@H](CCCNC(=N)N)C(=O)N[C@@H](C)C(=O)N[C@@H](CCCNC(=N)N)C(=O)N[C@@H](CCC(=O)O)C(=O)N[C@@H](Cc1ccccc1)C(=O)N[C@H](C(=O)N[C@@H](CCC(N)=O)C(=O)N[C@@H](Cc1c[nH]c2ccccc12)C(=O)N[C@@H](CC(C)C)C(=O)N[C@@H](CC(C)C)C(=O)N[C@@H](CCCCNC(=O)CC[C@H](NC(=O)CC[C@H](NC(=O)COCCOCCNC(=O)COCCOCCNC(=O)CC[C@H](NC(=O)CC[C@H](NC(=O)CCCCCCCCCCCCCCCCC(=O)O)C(=O)O)C(=O)O)C(=O)O)C(=O)O)C(=O)N[C@H](C(N)=O)[C@@H](C)O)C(C)C` [Example 47, N^ε28-[(4S)-4-carboxy-4-[[(4S)-4-carboxy-4-[[2-[2-[2-[[2-[2-[2-[[(4S)-4-carboxy-4-[[(4S)-4-carboxy-4-(17-carboxyheptadecanoylamino)butanoyl]amino]butanoyl]amino]ethoxy]ethoxy]acetyl]amino]ethoxy]ethoxy]acetyl]amino]butanoyl]amino]butanoyl]-[Acb2,Leu10,Leu16,Lys17,Arg20,Glu21,Leu27,Lys28]-Glucagon amide] (H-H[Ac4c]QGTFTSDLSKYLDLKRAREFVQWLLK([γGlu-γGlu-AEEA-AEEA-γGlu-γGlu-C18 diacid])T-NH2; N-terminus assumed), the pEC50 in series [1] was 10.77. The same compound came in with a THT assay Lag time (Ex. 76) in series [2] of 45 h.
